Results reported in patent publication US7473679B2, “Treatments employing neuronal exocytosis-inhibiting peptides” (Lipotec, S.A., priority 1999, dated 2009).

Each substance was assayed on chromaffin cells permeabilized with digitonin (assay: Inhibition of the release of catecholamines induced by calcium in permeabilized chromaffin cells). Conditions: peptide at 1 mM, stimulated with calcium.
Type: cell-based, bovine
Description: The neuronal-exocytosis (neurosecretion) inhibiting capabilities of the peptides of the invention became evident through a test that evaluates the strength of said peptides in inhibiting the release of catecholamines induced by calcium in chromaffin cells permeabilized with a detergent [see Example 1.2.1]. Briefly, the chromaffin cell cultures are incubated with epinephrine and norepinephrine containing tritium, are permeabilized with digitonin, and stimulated with calcium, and the amount of radioactivity released by the cells to the extracellular medium, which is a reflection of the exocytosis of said tritium-containing catecholamines, is measured.
This test was performed to verify the neuronal exocytosis-inhibiting capabilities of the peptides synthesized in Example 1.1. In this test, the strength of said peptides is evaluated in inhibiting the release of catecholamines (norepinephrine and epinephrine) induced by calcium in chromaffin cells (obtained from suprarenal bovine glands) permeabilized with the detergent digitonin, in accordance with the method described by Gutiérrez el al. (1995 and 1997).
Briefly, the chromaffin cell cultures are incubated with [^3H]-epinephrine and [^3H]-norepinephrine, are permeabilized with 20 μM digitonin, and stimulated with calcium (10 μM), in the presence of the peptides to be tested (separate or mixed), and the amount of radioactivity released by the cells to the extracellular medium, which is a reflection of the exocytosis of [^3H]-epinephrine and [^3H]-norepinephrine, is measured.
In the case of “SEQ. ID. No. 2: hexapeptide from the amino end of protein SNAP-25 (EEMQRR)”, the “inhibition of the release of catecholamines (epinephrine and norepinephrine)” value (shortened to “inhibition”) is reported as “approximately 20%”.
“SEQ. ID. No. 3: peptide with 13 amino acids from the amino end of protein SNAP-25 (ELEEMQRRADQLA)” was tested, and the “inhibition” value was “approximately 35%”.
“SEQ. ID. No. 5: peptide from the carboxyl end of SNAP-25 [SEQ. ID. No. 4], (COOH) peptide (RIMEKADSNKTRIDEANQ)” was tested, and the “inhibition” value was “approximately 40%”.
“SEQ. ID. No. 6: peptide from the carboxyl end of SNAP-25 [SEQ. ID. No. 4], (COOH) peptide (ADSNKTRIDEANQRATKML)” was tested, and the “inhibition” value was “approximately 40%”.
